Results published in patent US8389527B2, “Substituted imidazopyridazines useful as kinase inhibitors” (Bristol-Myers Squibb Company, priority 2008, dated 2013).

How the values were obtained:
HCT116 = experiment: Cell proliferation inhibition assay (MTT, CellTiter96); type: cell-based; conditions: Homo sapiens, HCT-116; HCT116 cells, 72 h with compound, MTT readout
Description: B. Cell Proliferation Inhibition Assay
Compounds were evaluated for their ability to inhibit cell proliferation, using an assay that measures mitochondrial metabolic activity, that is directly correlated with cell numbers. Cells were plated at 2000 cells/well in 96-well plates and were cultured for 24 h in RPMI-1640 supplemented with 2% fetal bovine serum, before test compounds were added. Compounds were diluted in culture medium such that the final concentration of dimethyl sulfoxide never exceeded 1%. Following the addition of compounds, the cells were cultured for an additional 72 h before cell viability was determined by measuring the conversion of 3-(4,5-dimethylthiazol-2-yl)-2,5-diphenyltetrazolium bromide (MTT) dye using the CellTiter96 kit (Promega).

recombinant CK2A2 = biological target: T1, recombinant CK2A2 (Homo sapiens, UniProt P19784); experiment: CK2 kinase assay (CK2A2), [γ-33P]ATP filter-binding; type: biochemical; conditions: recombinant CK2A2 5 nM, ATP 5 μM, 10 μM peptide substrate, 30° C. 1 h
T1 construct: purchased Upstate Biotechnology
Description: (§1) The effectiveness of compounds of the present invention as inhibitors of protein kinases can be readily tested by assays known to those skilled in the art. For example, in vitro protein kinase assays may be conducted with a relevant purified protein kinase and an appropriate synthetic substrate to determine the inhibitory activities of the compounds. […] Reaction mixtures were incubated at 30° C. for 1 h, and reaction products were captured by binding to phosphocellulose (P81) filter plates. Incorporation of radioactive phosphate into the peptide substrate was determined by liquid scintillation counting. The potency of compounds in inhibiting CK2 is expressed as IC50, defined as the concentrations of compounds required to inhibit the enzymatic activity by 50%.

recombinant CK2A1 = biological target: T2, recombinant CK2A1 (Homo sapiens, UniProt P68400); experiment: CK2 kinase assay (CK2A1), [γ-33P]ATP filter-binding; type: biochemical; conditions: recombinant CK2A1 10 nM, ATP 25 μM, 10 μM peptide substrate, 30° C. 1 h
T2 construct: purchased Invitrogen
Description: as §1

T2 sequence (P68400 whole entry): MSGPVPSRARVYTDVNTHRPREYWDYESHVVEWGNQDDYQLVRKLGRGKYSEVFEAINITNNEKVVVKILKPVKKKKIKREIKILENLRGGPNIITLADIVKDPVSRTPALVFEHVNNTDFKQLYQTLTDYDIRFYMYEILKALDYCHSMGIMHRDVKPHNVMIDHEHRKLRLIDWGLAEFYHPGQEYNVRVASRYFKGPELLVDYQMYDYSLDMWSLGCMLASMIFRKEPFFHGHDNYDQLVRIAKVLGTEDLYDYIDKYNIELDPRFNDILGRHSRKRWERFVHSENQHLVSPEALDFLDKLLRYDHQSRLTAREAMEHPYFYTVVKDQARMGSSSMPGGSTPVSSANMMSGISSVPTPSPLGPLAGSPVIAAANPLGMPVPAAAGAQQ
T1 sequence (P19784 whole entry): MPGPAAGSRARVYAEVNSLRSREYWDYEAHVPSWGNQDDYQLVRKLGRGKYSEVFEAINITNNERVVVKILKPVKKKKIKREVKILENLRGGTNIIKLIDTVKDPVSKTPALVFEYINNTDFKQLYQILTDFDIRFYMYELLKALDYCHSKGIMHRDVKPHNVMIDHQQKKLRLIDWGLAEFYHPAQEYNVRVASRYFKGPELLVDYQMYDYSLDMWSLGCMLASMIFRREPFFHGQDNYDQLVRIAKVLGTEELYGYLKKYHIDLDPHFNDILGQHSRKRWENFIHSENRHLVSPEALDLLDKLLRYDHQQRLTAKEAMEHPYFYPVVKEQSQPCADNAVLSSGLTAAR

Compound | IC50 (HCT116) | IC50 (recombinant CK2A2) | IC50 (recombinant CK2A1)
N[C@@H](CO)C(=O)N[C@H]1CC[C@H](Nc2cc(NC3CC3)c3ncc(C(=O)Nc4ccnc(Cl)c4)n3n2)CC1 [Example 197, N-(2-chloro-4-pyridinyl)-8-(cyclopropylamino)-6-((trans-4-(L-serylamino)cyclohexyl)amino)imidazo [1,2-b]pyridazine-3-carboxamide] | 230 nM | 0.8 nM | 13.5 nM
O=C(Nc1ccncc1F)c1cnc2c(NC3CC3)cc(N[C@H]3CC[C@H](NCC(O)CO)CC3)nn12 (stereo partly drawn) [Example 524, 8-(cyclopropylamino)-6-((trans-4-((2,3-dihydroxypropyl)amino)cyclohexyl)amino)-N-(3-fluoro-4-pyridinyl)imidazo [1,2-b]pyridazine-3-carboxamide] | 1150 nM | 4 nM | 21 nM
N#CCC(=O)N[C@H]1CC[C@H](Nc2cc(NC3CC3)c3ncc(C(=O)Nc4ccnc(F)c4)n3n2)CC1 [Example 138, 6-((trans-4-((cyanoacetyl)amino)cyclohexyl)amino)-8-(cyclopropylamino)-N-(2-fluoro-4-pyridinyl)imidazo [1,2-b]pyridazine-3-carboxamide] | 610 nM | 9 nM | 21 nM
O=C(Nc1ccnc(Cl)c1)c1cnc2c(NC3CC3)cc(N[C@H]3CC[C@H](NC(=O)C4COCCN4)CC3)nn12 (stereo partly drawn) [Example 198, N-(2-chloro-4-pyridinyl)-8-(cyclopropylamino)-6-((trans-4-((3-morpholinylcarbonyl)amino)cyclohexyl)amino)imidazo [1,2-b]pyridazine-3-carboxamide] | 90 nM | 1.5 nM | 3.6 nM
N[C@@H](C(=O)N[C@H]1CC[C@H](Nc2cc(NC3CC3)c3ncc(C(=O)Nc4ccnc(Cl)c4)n3n2)CC1)c1ccccc1 [Example 172, 6-((trans-4-(((2R)-2-amino-2-phenylacetyl)amino)cyclohexyl)amino)-N-(2-chloro-4-pyridinyl)-8-(cyclopropylamino)imidazo [1,2-b]pyridazine-3-carboxamide] | 360 nM | 0.9 nM | 37.3 nM
O=C(Nc1ccnc(F)c1)c1cnc2c(NC3CC3)cc(N[C@H]3CC[C@H](N4CCOCC4)CC3)nn12 [Example 27, 8-(cyclopropylamino)-N-(2-fluoropyridin-4-yl)-6-((trans)-4-morpholinocyclohexylamino)imidazo[1,2-b]pyridazine-3-carboxamide] | 430 nM | 72 nM | 247 nM
N[C@H]1CC[C@H](Nc2cc(NC3CCC3)c3ncc(C(=O)Nc4ccncc4F)n3n2)CC1 [Example 469, 6-((trans-4-aminocyclohexyl)amino)-8-(cyclobutylamino)-N-(3-fluoro-4-pyridinyl)imidazo [1,2-b]pyridazine-3-carboxamide] | 50 nM | 5 nM | 19 nM
CNC(C)(C)C(=O)N[C@H]1CC[C@H](Nc2cc(NC3CC3)c3ncc(C(=O)Nc4ccnc(Cl)c4)n3n2)CC1 [Example 159, N-(2-chloro-4-pyridinyl)-8-(cyclopropylamino)-6-((trans-4-((N,2-dimethylalanyl)amino)cyclohexyl)amino) imidazo[1,2-b]pyridazine-3-carboxamide] | 280 nM | 2.1 nM | 34.1 nM
N[C@H]1CC[C@H](Nc2cc(Nc3ncccc3O)c3ncc(C(=O)Nc4ccncc4)n3n2)CC1 [Example 378, 6-((trans-4-aminocyclohexyl)amino)-8-((3-hydroxy-2-pyridinyl)amino)-N-4-pyridinyl-imidazo[1,2-b]pyridazine-3-carboxamide] | > 1000 nM | 290 nM | 205 nM
CC(=O)Nc1cccc(NC(=O)c2cnc3c(NC4CC4)cc(N[C@H]4CC[C@H](N)CC4)nn23)c1 [Example 83, N-(3-acetamidophenyl)-6-((trans)-4-aminocyclohexylamino)-8-(cyclopropylamino)imidazo[1,2-b]pyridazine-3-carboxamide] | > 1000 nM | 4390 nM | 12300 nM
N[C@H](Cc1cccnc1)C(=O)N[C@H]1CC[C@H](Nc2cc(NC3CC3)c3ncc(C(=O)Nc4ccnc(Cl)c4)n3n2)CC1 [Example 202, N-(2-chloro-4-pyridinyl)-8-(cyclopropylamino)-6-((trans-4-((3-(3-pyridinyl)-D-alanyl)amino)cyclohexyl)amino)imidazo [1,2-b]pyridazine-3-carboxamide] | 430 nM | 1.7 nM | 9.5 nM
CN(C)[C@H]1CCN(C(=O)N[C@H]2CC[C@H](Nc3cc(NC4CC4)c4ncc(C(=O)Nc5ccnc(Cl)c5)n4n3)CC2)C1 [Example 272, N-(2-chloro-4-pyridinyl)-8-(cyclopropylamino)-6-((trans-4-((((3S)-3-(dimethylamino)-1-pyrrolidinyl)carbonyl)amino)cyclohexyl)amino) imidazo[1,2-b]pyridazine-3-carboxamide] | 400 nM | 0.8 nM | 1.9 nM
Nc1cc(N[C@H]2CC[C@H](N)CC2)nn2c(C(=O)Nc3ccncc3)cnc12 [Example 39, 8-amino-6-(4-aminocyclohexylamino)-N-(pyridin-4-yl)imidazo[1,2-b]pyridazine-3-carboxamide] | 9950 nM | 43 nM | 102 nM

The next lines start with the values.

IC50 (HCT116) | IC50 (recombinant CK2A2) | IC50 (recombinant CK2A1) | Compound
20 nM | 0.03 nM | 26.3 nM | O=C(Nc1ccnc(Cl)c1)c1cnc2c(Nc3ccon3)cc(N[C@H]3CC[C@H](O)CC3)nn12 [Example 549, N-(2-chloro-4-pyridinyl)-6-((trans-4-hydroxycyclohexyl)amino)-8-(3-isoxazolylamino) imidazo[1,2-b]pyridazine-3-carboxamide]
260 nM | 3 nM | 28 nM | O=C(Nc1ccnc(Cl)c1)c1cnc2c(NC3CC3)cc(N[C@H]3CC[C@H](NCCO)CC3)nn12 [Example 531, N-(2-chloro-4-pyridinyl)-8-(cyclopropylamino)-6-((trans-4-((2-hydroxyethyl)amino)cyclohexyl)amino) imidazo[1,2-b]pyridazine-3-carboxamide]
80 nM | 1 nM | 5.5 nM | CC(C)n1ccc(Nc2cc(N[C@H]3CC[C@H](NC(=O)CC#N)CC3)nn3c(C(=O)Nc4ccnc(Cl)c4)cnc23)n1 [Example 559, N-(2-chloro-4-pyridinyl)-6-((trans-4-((cyanoacetyl)amino)cyclohexyl)amino)-8-((1-isopropyl-1H-pyrazol-3-yl)amino)imidazo[1,2-b] pyridazine-3-carboxamide]
890 nM | 97 nM | 428 nM | O=C(Nc1ccnc(Cl)c1)c1cnc2c(NC3CC3)cc(NC3CCSCC3)nn12 [Example 571, N-(2-chloro-4-pyridinyl)-8-(cyclopropylamino)-6-(tetrahydro-2H-thiopyran-4-ylamino)imidazo[1,2-b]pyridazine-3-carboxamide]
340 nM | 42 nM | 331 nM | CC(C)CN[C@H]1CC[C@H](Nc2cc(NC3CC3)c3ncc(C(=O)Nc4ccnc(Cl)c4)n3n2)CC1 [Example 538, N-(2-chloro-4-pyridinyl)-8-(cyclopropylamino)-6-((trans-4-(isobutylamino)cyclohexyl)amino)imidazo [1,2-b]pyridazine-3-carboxamide]
